Experimental data as given in PubChem BioAssay (NCI).
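Following 48 hours of exposure in 96-well plates, responses at five concentrations were used to interpolate endpoints linearly. GI50 is the concentration that inhibits growth by half. TGI marks complete inhibition of growth.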

Legend:
Test in all cases: NCI tumour cell line growth inhibition, 48 h
786-0 renal = test system: 786-0 renal
A498 renal = test system: A498 renal
A549 NSCLC = test system: A549 NSCLC
ACHN renal = test system: ACHN renal
BT-549 breast = test system: BT-549 breast
CAKI-1 renal = test system: CAKI-1 renal
CCRF-CEM leukemia = test system: CCRF-CEM leukemia
COLO 205 colon = test system: COLO 205 colon
DU-145 prostate = test system: DU-145 prostate
EKVX NSCLC = test system: EKVX NSCLC
HCC-2998 colon = test system: HCC-2998 colon
HCT-116 colon = test system: HCT-116 colon
HCT-15 colon = test system: HCT-15 colon
HL-60(TB) leukemia = test system: HL-60(TB) leukemia
HOP-62 NSCLC = test system: HOP-62 NSCLC
HOP-92 NSCLC = test system: HOP-92 NSCLC
HS 578T breast = test system: HS 578T breast
HT29 colon = test system: HT29 colon
IGROV1 ovarian = test system: IGROV1 ovarian
K-562 leukemia = test system: K-562 leukemia
KM12 colon = test system: KM12 colon
LOX IMVI melanoma = test system: LOX IMVI melanoma
M14 melanoma = test system: M14 melanoma
MALME-3M melanoma = test system: MALME-3M melanoma
MCF7 breast = test system: MCF7 breast
MDA-MB-231 breast = test system: MDA-MB-231 breast
MDA-MB-435 = test system: MDA-MB-435
MOLT-4 leukemia = test system: MOLT-4 leukemia
NCI-H226 lung = test system: NCI-H226 lung
NCI-H460 lung = test system: NCI-H460 lung
NCI-H522 lung = test system: NCI-H522 lung
NCI/ADR-RES ovarian = test system: NCI/ADR-RES ovarian
OVCAR-3 ovarian = test system: OVCAR-3 ovarian
OVCAR-4 ovarian = test system: OVCAR-4 ovarian
OVCAR-5 ovarian = test system: OVCAR-5 ovarian
OVCAR-8 ovarian = test system: OVCAR-8 ovarian
PC-3 prostate = test system: PC-3 prostate
RPMI-8226 leukemia = test system: RPMI-8226 leukemia
RXF 393 renal = test system: RXF 393 renal
SF-268 CNS = test system: SF-268 CNS
SF-295 CNS = test system: SF-295 CNS
SF-539 CNS = test system: SF-539 CNS
SK-MEL-2 melanoma = test system: SK-MEL-2 melanoma
SK-MEL-28 melanoma = test system: SK-MEL-28 melanoma
SK-MEL-5 melanoma = test system: SK-MEL-5 melanoma
SK-OV-3 ovarian = test system: SK-OV-3 ovarian
SN12C renal = test system: SN12C renal
SNB-19 CNS = test system: SNB-19 CNS
SNB-75 CNS = test system: SNB-75 CNS
SR leukemia = test system: SR leukemia
SW-620 colon = test system: SW-620 colon
T-47D breast = test system: T-47D breast
TK-10 renal = test system: TK-10 renal
U251 CNS = test system: U251 CNS
UACC-257 melanoma = test system: UACC-257 melanoma
UACC-62 melanoma = test system: UACC-62 melanoma
UO-31 renal = test system: UO-31 renal

For `C/C(=C(/c1ccc(O)cc1)c1ccc(OCCN2CCCC2)cc1)c1ccc(Cl)cc1`, the GI50 (786-0 renal) was 1.65 µM, the TGI (786-0 renal) was 3.16 µM and the GI50 (A498 renal) was 16.6 µM. It also gave a TGI (A498 renal) of 32.3 µM, a GI50 (A549 NSCLC) of 7.58 µM and a TGI (A549 NSCLC) of 20.5 µM. For the same molecule, the GI50 (ACHN renal) was 3.35 µM, the TGI (ACHN renal) was 11.9 µM and the GI50 (BT-549 breast) was 8.98 µM. For the same molecule, the TGI (BT-549 breast) was 21.1 µM, the GI50 (CAKI-1 renal) was 2.07 µM and the TGI (CAKI-1 renal) was 6.39 µM. The GI50 (CCRF-CEM leukemia) was 2.41 µM, the TGI (CCRF-CEM leukemia) was 7.38 µM and the GI50 (COLO 205 colon) was 1.64 µM. It also gave a TGI (COLO 205 colon) of 3.14 µM, a GI50 (DU-145 prostate) of 4.54 µM and a TGI (DU-145 prostate) of 15.7 µM. It also gave a GI50 (EKVX NSCLC) of 5.84 µM, a TGI (EKVX NSCLC) of 18.7 µM and a GI50 (HCC-2998 colon) of 2.06 µM. For the same molecule, the TGI (HCC-2998 colon) was 4.21 µM, the GI50 (HCT-116 colon) was 1.63 µM and the TGI (HCT-116 colon) was 3.21 µM. For the same molecule, the GI50 (HCT-15 colon) was 1.99 µM, the TGI (HCT-15 colon) was 4.62 µM and the GI50 (HL-60(TB) leukemia) was 2.09 µM. It also gave a TGI (HL-60(TB) leukemia) of 4.11 µM, a GI50 (HOP-62 NSCLC) of 3.99 µM and a TGI (HOP-62 NSCLC) of 15 µM. For the same molecule, the GI50 (HOP-92 NSCLC) was 2.38 µM, the TGI (HOP-92 NSCLC) was 9.63 µM and the GI50 (HS 578T breast) was 2.56 µM. For the same molecule, the TGI (HS 578T breast) was 8.36 µM, the GI50 (HT29 colon) was 1.73 µM and the TGI (HT29 colon) was 3.41 µM. The GI50 (IGROV1 ovarian) was 4.62 µM, the TGI (IGROV1 ovarian) was 17.5 µM and the GI50 (K-562 leukemia) was 1.64 µM. The TGI (K-562 leukemia) was 3.94 µM, the GI50 (KM12 colon) was 3.39 µM and the TGI (KM12 colon) was 12.2 µM. It also gave a GI50 (LOX IMVI melanoma) of 1.71 µM, a TGI (LOX IMVI melanoma) of 3.17 µM and a GI50 (M14 melanoma) of 1.69 µM. For the same molecule, the TGI (M14 melanoma) was 3.23 µM, the GI50 (MALME-3M melanoma) was 1.64 µM and the TGI (MALME-3M melanoma) was 3.11 µM. For the same molecule, the GI50 (MCF7 breast) was 0.0364 µM, the TGI (MCF7 breast) was 3.26 µM and the GI50 (MDA-MB-231 breast) was 3.52 µM. The TGI (MDA-MB-231 breast) was 13.1 µM, the GI50 (MDA-MB-435) was 1.72 µM and the TGI (MDA-MB-435) was 3.21 µM. For the same molecule, the GI50 (MOLT-4 leukemia) was 2.52 µM, the TGI (MOLT-4 leukemia) was 6.02 µM and the GI50 (NCI-H226 lung) was 10.8 µM. It also gave a TGI (NCI-H226 lung) of 32.4 µM, a GI50 (NCI-H460 lung) of 1.8 µM and a TGI (NCI-H460 lung) of 3.33 µM. The GI50 (NCI-H522 lung) was 1.83 µM, the TGI (NCI-H522 lung) was 4.11 µM and the GI50 (NCI/ADR-RES ovarian) was 3.68 µM. The TGI (NCI/ADR-RES ovarian) was 14.2 µM, the GI50 (OVCAR-3 ovarian) was 3.05 µM and the TGI (OVCAR-3 ovarian) was 11.8 µM. It also gave a GI50 (OVCAR-4 ovarian) of 4.78 µM, a TGI (OVCAR-4 ovarian) of 17.2 µM and a GI50 (OVCAR-5 ovarian) of 6.26 µM. For the same molecule, the TGI (OVCAR-5 ovarian) was 18.8 µM, the GI50 (OVCAR-8 ovarian) was 2.82 µM and the TGI (OVCAR-8 ovarian) was 8.04 µM. It also gave a GI50 (PC-3 prostate) of 2.94 µM, a TGI (PC-3 prostate) of 10.8 µM and a GI50 (RPMI-8226 leukemia) of 2.24 µM. It also gave a TGI (RPMI-8226 leukemia) of 5.52 µM, a GI50 (RXF 393 renal) of 1.63 µM and a TGI (RXF 393 renal) of 3.23 µM. For the same molecule, the GI50 (SF-268 CNS) was 4.78 µM, the TGI (SF-268 CNS) was 20 µM and the GI50 (SF-295 CNS) was 2.16 µM. It also gave a TGI (SF-295 CNS) of 4.77 µM, a GI50 (SF-539 CNS) of 1.69 µM and a TGI (SF-539 CNS) of 3.24 µM. For the same molecule, the GI50 (SK-MEL-2 melanoma) was 7.37 µM, the TGI (SK-MEL-2 melanoma) was 20.5 µM and the GI50 (SK-MEL-28 melanoma) was 1.75 µM. For the same molecule, the TGI (SK-MEL-28 melanoma) was 3.21 µM, the GI50 (SK-MEL-5 melanoma) was 1.78 µM and the TGI (SK-MEL-5 melanoma) was 3.23 µM. The GI50 (SK-OV-3 ovarian) was 9.59 µM, the TGI (SK-OV-3 ovarian) was 21.5 µM and the GI50 (SN12C renal) was 5.21 µM. The TGI (SN12C renal) was 18.2 µM, the GI50 (SNB-19 CNS) was 3.85 µM and the TGI (SNB-19 CNS) was 13.8 µM. The GI50 (SNB-75 CNS) was 3.06 µM, the TGI (SNB-75 CNS) was 16.6 µM and the GI50 (SR leukemia) was 1.81 µM. The TGI (SR leukemia) was 4.71 µM, the GI50 (SW-620 colon) was 1.69 µM and the TGI (SW-620 colon) was 3.24 µM. For the same molecule, the GI50 (T-47D breast) was 1.54 µM, the TGI (T-47D breast) was 10.4 µM and the GI50 (TK-10 renal) was 13.6 µM. It also gave a TGI (TK-10 renal) of 27.3 µM, a GI50 (U251 CNS) of 2.03 µM and a TGI (U251 CNS) of 4.59 µM. For the same molecule, the GI50 (UACC-257 melanoma) was 1.78 µM, the TGI (UACC-257 melanoma) was 3.55 µM and the GI50 (UACC-62 melanoma) was 2.04 µM. The TGI (UACC-62 melanoma) was 4.57 µM, the GI50 (UO-31 renal) was 2.51 µM and the TGI (UO-31 renal) was 11.4 µM.
